In publication PMC8037310, “Thrombin-Derived Peptides Potentiate the Activity of Gram-Positive-Specific Antibiotics against Gram-Negative Bacteria” (Molecules, 2021):
Read-outs that look alike come from different tables or passages of the source. Peptide text beside a SMILES is read from it.

Key:
E. coli ATCC25922 = assay type: cell-based, Escherichia coli
Outline: (§1)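 Checkerboard of peptide serial dilutions against rifampicin concentrations in triplicate, in LB with 1.0 × 10^6 CFU/mL final inoculum after mixing the 2.0 × 10^6 CFU/mL stock 1:1, 20 h at 37 °C shaking. OD600 read; FICi = MSCa/MICa + MSCb/MICb, ≤0.5 taken as synergy.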

E. coli BW25113 [1] = assay type: cell-based, Escherichia coli
[2] = system: E. coli EQASmcr-1 (EQAS 2016 412016126); assay type: cell-based, Escherichia coli
[3] = system: E. coli EQASmcr-2 (EQAS 2016 KP37); assay type: cell-based, Escherichia coli
[4] = system: E. coli EQASmcr-3 (EQAS 2017 2013-SQ352); assay type: cell-based, Escherichia coli
E. coli W3110 = assay type: cell-based, Escherichia coli
E. coli mcr-1 = assay type: cell-based, Escherichia coli
Outline: as §1

E. coli BW25113 [5] = test: microbe, parasite or virus in culture; assay type: cell-based, Escherichia coli
Method: (§2) All peptides were screened for antimicrobial activity against E. coli BW25113, E. coli ATCC25922, and E. coli W3110. A select group of the peptides was further tested against E. coli mcr-1, E. coli EQASmcr-1 (EQAS 2016 412016126), E. coli EQASmcr-2 (EQAS 2016 KP37), E. coli EQASmcr-3 (EQAS 2017 2013-SQ352), K. pneumoniae ATCC13883, P. aeruginosa ATCC27853, and A. baumannii ATCC17978. The antimicrobial assay was performed according to CLSI guidelines. Bacteria were plated out directly from their glycerol stocks on blood agar plates, incubated overnight at 37 °C, and then kept in the fridge. The blood agar plates were only used for 2 weeks and then replaced.
(§3) One colony from a blood agar plates was inoculated in Lysogeny Broth (LB) at 37 °C until a 0.5 optical density at 600 nm (OD600) was reached (compared to the sterility control of LB). The bacterial suspension was diluted in fresh LB to 2.0 × 10^6 CFU/mL. The serial dilutions were prepared in polypropylene microtiter plates: a stock of the test compounds was prepared with a 2x final concentration in LB. Moreover, 100 µL of the stock was added to the wells of the top row of which 50 µL was used for the serial dilution. The bottom row of each plate was used as the positive (50 µL of LB) and negative controls (100 µL of LB) (6 wells each). Furthermore, 50 µL of the 2.0 × 10^6 CFU/mL bacterial stock was added to each well except for the negative controls, adding up to a total volume of 100 µL per well. The plates were sealed with a breathable seal and incubated for 20 h at 37 °C and 600 rpm.
(§4) Two 96-well plates were required per compound. A serial dilution of the compound was performed on two plates from row A–G using with LB as medium. Row H was filled with 25 µL medium. On a separate plate a negative control (8 wells, 100 μL medium) was prepared. For all concentrations of antibiotic a specific stock was prepared. 25 µL medium was added to the 0 µg/mL antibiotic columns (plate I, column 1–3). Of each antibiotic stock 25 µL was added to three columns to obtain triplicates for every condition. Both plates contained 50 µL in each well to which 50 µL bacterial stock was added (see the protocol of the MIC assays) and the plates were sealed. After incubation for 20 h at 37 °C while shaking, the breathable seals were removed and the density of the bacterial suspensions measured at 600 nm (OD600) using a Tecan Spark plate reader. The OD600 values were transformed to a 2D gradient with the negative control as minimum and the positive control (wells G1, G2, and G3) as maximum in excel. The FICi was calculated using Equation (1) with a FICi ≤ 0.5 indicating synergy. FICi = (MSCa/MICa) + (MSCb/MICb),(1)
(§5) Calculation of the FICi: MSCa = concentration of the […] in combination with the antibiotic that results in the lowest FICi. MICa = MIC of the antibiotic without synergist (row G). MSCb = concentration of the synergist in combination with the antibiotic that results in the lowest FICi. MICb = MIC of the synergist itself (Column 1–3, plate I).

E. coli BW25113 [6] = test: microbe, parasite or virus in culture; assay type: cell-based, Escherichia coli; remark: listed apart in the source
Method: as §2, §3, §4, §5

A. baumannii ATCC17978 = test: microbe, parasite or virus in culture; assay type: cell-based, Acinetobacter baumannii
Method: as §2, §3, §4, §5

K. pneumoniae ATCC13883 = test: Checkerboard assay with rifampicin; assay type: cell-based, Klebsiella pneumoniae; details: K. pneumoniae ATCC13883
Method: as §2, §3, §4, §5

P. aeruginosa ATCC27853 = test: Checkerboard assay with rifampicin; assay type: cell-based, Pseudomonas aeruginosa
Method: as §2, §3, §4, §5

Structure (SMILES): CC[C@H](C)[C@H](NC(=O)[C@@H](NC(=O)[C@H](CCCCN)NC(=O)[C@H](CCC(N)=O)NC(=O)[C@@H](NC(=O)[C@H](Cc1c[nH]c2ccccc12)NC(=O)[C@H](CCCCN)NC(=O)[C@H](CCCCN)NC(=O)[C@H](CC(C)C)NC(=O)[C@H](CCCNC(=N)N)NC(=O)[C@H](Cc1ccccc1)NC(=O)[C@@H](N)C(C)C)[C@@H](C)CC)C(C)C)C(N)=O [peptide 6] (H-VFRLKKWIQKVI-NH2)
- FICi (E. coli ATCC25922; ATCC25922, 20 h): 0.0469
- MICpeptide (E. coli ATCC25922; peptide alone, E. coli ATCC25922): 200 µg/mL
- MSCpeptide (E. coli ATCC25922; peptide concentration in the combination with rifampicin giving the lowest FICi, E. coli ATCC25922): 6.25 µg/mL
- MSCrif (E. coli ATCC25922; rifampicin concentration in the combination giving the lowest FICi, E. coli ATCC25922): 0.063 µg/mL
- FICi (E. coli BW25113 [1]; BW25113, 20 h): 0.1563
- MSCrif (E. coli BW25113 [1]; rifampicin concentration in the combination giving the lowest FICi, E. coli BW25113): 0.25 µg/mL
- MICpep (E. coli BW25113 [1]; synergist alone, E. coli BW25113, from checkerboard with rifampicin): 25 µg/mL
- MSCpep (E. coli BW25113 [1]; synergist concentration in the combination with rifampicin giving the lowest FICi, E. coli BW25113): 3.125 µg/mL
- FICi ([2]; EQASmcr-1 (EQAS 2016 412016126, 20 h)): 0.0781
- MICpeptide ([2]; peptide alone, E. coli EQASmcr-1): 100 µg/mL
- MSCpeptide ([2]; peptide concentration in the combination with rifampicin giving the lowest FICi, E. coli EQASmcr-1): 6.25 µg/mL
- MSCrif ([2]; rifampicin concentration in the combination giving the lowest FICi, E. coli EQASmcr-1): 0.125 µg/mL
- FICi ([3]; EQASmcr-2 (EQAS 2016 KP37, 20 h)): 0.0938
- MICpeptide ([3]; peptide alone, E. coli EQASmcr-2): 100 µg/mL
- MSCpeptide ([3]; peptide concentration in the combination with rifampicin giving the lowest FICi, E. coli EQASmcr-2): 6.25 µg/mL
- MSCrif ([3]; rifampicin concentration in the combination giving the lowest FICi, E. coli EQASmcr-2): 0.25 µg/mL
- FICi ([4]; EQASmcr-3 (EQAS 2017 2013-SQ352, 20 h)): 0.0781
- MICpeptide ([4]; peptide alone, E. coli EQASmcr-3): 50 µg/mL
- MSCpeptide ([4]; peptide concentration in the combination with rifampicin giving the lowest FICi, E. coli EQASmcr-3): 3.125 µg/mL
- MSCrif ([4]; rifampicin concentration in the combination giving the lowest FICi, E. coli EQASmcr-3): 0.125 µg/mL
- MICpeptide (E. coli W3110; peptide alone, E. coli W3110): 6.25 µg/mL
- MSCpeptide (E. coli W3110; peptide concentration in the combination with rifampicin giving the lowest FICi, E. coli W3110): 3.125 µg/mL
- MSCrif (E. coli W3110; rifampicin concentration in the combination giving the lowest FICi, E. coli W3110): 0.125 µg/mL
- FICi (E. coli W3110; with rifampicin vs E. coli W3110, synergy defined as FICi ≤ 0.5): > 0.5
- MICpeptide (E. coli mcr-1; peptide alone, E. coli mcr-1): 100 µg/mL
- MSCpeptide (E. coli mcr-1; peptide concentration in the combination with rifampicin giving the lowest FICi, E. coli mcr-1): 12.5 µg/mL
- MSCrif (E. coli mcr-1; rifampicin concentration in the combination giving the lowest FICi, E. coli mcr-1): 0.188 µg/mL
- FICi (E. coli mcr-1; with rifampicin vs E. coli mcr-1): 0.1406
- FICi (E. coli BW25113 [5]; BW25113, 20 h): 0.1875
- MSCnovo (E. coli BW25113 [5]; novobiocin concentration in the combination giving the lowest FICi, E. coli BW25113): 25 µg/mL
- MICpeptide (E. coli BW25113 [5]; synergist alone, E. coli BW25113, from checkerboard with novobiocin): 12.5 µg/mL
- MSCpeptide (E. coli BW25113 [5]; synergist concentration in the combination with novobiocin giving the lowest FICi, E. coli BW25113): 1.563 µg/mL
- MICpeptide (E. coli BW25113 [6]; synergist alone, E. coli BW25113, from checkerboard with vancomycin): 25 µg/mL
- MSCpeptide (E. coli BW25113 [6]; synergist concentration in the combination with vancomycin giving the lowest FICi, E. coli BW25113): 3.125 µg/mL
- MSCvanco (E. coli BW25113 [6]; vancomycin concentration in the combination giving the lowest FICi, E. coli BW25113): 25 µg/mL
- MICpeptide (A. baumannii ATCC17978; peptide alone, A. baumannii ATCC17978): 50 µg/mL
- MSCpeptide (A. baumannii ATCC17978; peptide concentration in the combination with rifampicin giving the lowest FICi, A. baumannii ATCC17978): 3.125 µg/mL
- MSCrif (A. baumannii ATCC17978; rifampicin concentration in the combination giving the lowest FICi, A. baumannii ATCC17978): 0.125 µg/mL
- FICi (A. baumannii ATCC17978; with rifampicin vs A. baumannii ATCC17978): 0.1250
- MICpeptide (K. pneumoniae ATCC13883; peptide alone): 100 µg/mL
- MSCpeptide (K. pneumoniae ATCC13883; peptide concentration in the combination with rifampicin giving the lowest FICi): 3.125 µg/mL
- MSCrif (K. pneumoniae ATCC13883; rifampicin concentration in the combination giving the lowest FICi): 1 µg/mL
- MICpeptide (P. aeruginosa ATCC27853; peptide alone, P. aeruginosa ATCC27853): 50 µg/mL
- MSCpeptide (P. aeruginosa ATCC27853; peptide concentration in the combination with rifampicin giving the lowest FICi, P. aeruginosa ATCC27853): 25 µg/mL
- MSCrif (P. aeruginosa ATCC27853; rifampicin concentration in the combination giving the lowest FICi, P. aeruginosa ATCC27853): 1 µg/mL
- FICi (P. aeruginosa ATCC27853; with rifampicin vs P. aeruginosa ATCC27853, synergy defined as FICi ≤ 0.5): > 0.5
